Source: patent US12351580B2, “NLRP3 modulators” (Innate Tumor Immunity, Inc., priority 2017, dated 2025)

target: T1, hNLRP3 (Homo sapiens, UniProt Q96P20); test: Measurement of IL-1β production in PMA-differentiated THP-1 cells (hNLRP3 agonist; ELISA, alternative and hTRF procedures); assay type: cell-based
T1 construct: THP-1 cells were purchased from the American Type Culture Collection; host or cells: THP-1 cells, PMA-differentiated
Method in brief: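 PMA-differentiated THP-1 cells (PMA […] 24 h, 20 μg/ml overnight, or 50 ng/ml overnight, by procedure) replated in RPMI with 2% FBS and exposed to compound (e.g. 100–0.1 μM, 1% DMSO; hTRF format top 10 μM) for 4 h, 2 h, or 2 h respectively. Supernatant IL-1β measured by ELISA, or by hTRF with antibodies diluted 1:40.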

T1 sequence (Q96P20 whole entry): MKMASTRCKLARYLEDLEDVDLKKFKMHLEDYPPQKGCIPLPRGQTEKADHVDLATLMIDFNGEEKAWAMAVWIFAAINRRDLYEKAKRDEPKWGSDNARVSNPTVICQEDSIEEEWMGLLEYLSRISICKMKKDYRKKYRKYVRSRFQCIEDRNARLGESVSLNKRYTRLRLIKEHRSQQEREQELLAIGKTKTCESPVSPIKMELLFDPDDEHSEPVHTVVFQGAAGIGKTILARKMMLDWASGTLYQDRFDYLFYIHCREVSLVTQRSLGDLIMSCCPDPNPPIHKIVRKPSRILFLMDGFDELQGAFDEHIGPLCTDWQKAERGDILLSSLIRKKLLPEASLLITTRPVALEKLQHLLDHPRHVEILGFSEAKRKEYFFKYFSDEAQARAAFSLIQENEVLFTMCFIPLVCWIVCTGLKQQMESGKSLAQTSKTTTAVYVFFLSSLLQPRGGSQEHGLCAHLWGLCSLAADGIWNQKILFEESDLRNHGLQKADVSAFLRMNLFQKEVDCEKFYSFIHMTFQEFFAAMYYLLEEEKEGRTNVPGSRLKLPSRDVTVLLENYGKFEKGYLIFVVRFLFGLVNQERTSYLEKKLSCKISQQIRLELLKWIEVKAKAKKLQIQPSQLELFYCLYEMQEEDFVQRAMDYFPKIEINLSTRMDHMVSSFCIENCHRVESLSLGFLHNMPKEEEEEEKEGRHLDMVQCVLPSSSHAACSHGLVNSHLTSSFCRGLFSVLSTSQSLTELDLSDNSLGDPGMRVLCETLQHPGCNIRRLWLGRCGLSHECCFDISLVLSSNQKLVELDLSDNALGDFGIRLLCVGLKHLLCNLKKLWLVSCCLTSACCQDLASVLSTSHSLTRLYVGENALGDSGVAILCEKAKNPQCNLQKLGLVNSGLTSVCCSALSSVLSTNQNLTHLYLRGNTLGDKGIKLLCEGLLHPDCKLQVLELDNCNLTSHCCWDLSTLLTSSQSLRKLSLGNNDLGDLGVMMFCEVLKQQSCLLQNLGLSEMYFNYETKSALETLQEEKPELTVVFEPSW

SMILES | EC50 [nM]
CCN(Cc1nc2c(N)nc3cc(-c4cc[nH]n4)ccc3c2[nH]1)C(=O)c1ccncc1 [Compound 450, N-{[4-amino-7-(1H-pyrazol-3-yl)-1H-imidazo[4,5-c]quinolin-2-yl]methyl}-N-ethylpyridine-4-carboxamide] | 4500
CCN(Cc1nc2c(N)nc3cc(-c4cc[nH]n4)ccc3c2[nH]1)C(=O)c1cn(C)c2ccccc12 [Compound 451, N-{[4-amino-7-(1H-pyrazol-3-yl)-1H-imidazo[4,5-c]quinolin-2-yl]methyl}-N-ethyl-1-methyl-1H-indole-3-carboxamide] | 1300
CCN(Cc1nc2c(N)nc3cc(-c4cc[nH]n4)ccc3c2[nH]1)C(=O)c1ccc(Cl)cc1 [Compound 452, N-{[4-amino-7-(1H-pyrazol-3-yl)-1H-imidazo[4,5-c]quinolin-2-yl]methyl}-4-chloro-N-ethylbenzamide] | 1200
